In data set [1] the target is T1, Solute carrier organic anion transporter family member 1A2 (Homo sapiens, UniProt P46721).
T1 sequence (P46721 whole entry): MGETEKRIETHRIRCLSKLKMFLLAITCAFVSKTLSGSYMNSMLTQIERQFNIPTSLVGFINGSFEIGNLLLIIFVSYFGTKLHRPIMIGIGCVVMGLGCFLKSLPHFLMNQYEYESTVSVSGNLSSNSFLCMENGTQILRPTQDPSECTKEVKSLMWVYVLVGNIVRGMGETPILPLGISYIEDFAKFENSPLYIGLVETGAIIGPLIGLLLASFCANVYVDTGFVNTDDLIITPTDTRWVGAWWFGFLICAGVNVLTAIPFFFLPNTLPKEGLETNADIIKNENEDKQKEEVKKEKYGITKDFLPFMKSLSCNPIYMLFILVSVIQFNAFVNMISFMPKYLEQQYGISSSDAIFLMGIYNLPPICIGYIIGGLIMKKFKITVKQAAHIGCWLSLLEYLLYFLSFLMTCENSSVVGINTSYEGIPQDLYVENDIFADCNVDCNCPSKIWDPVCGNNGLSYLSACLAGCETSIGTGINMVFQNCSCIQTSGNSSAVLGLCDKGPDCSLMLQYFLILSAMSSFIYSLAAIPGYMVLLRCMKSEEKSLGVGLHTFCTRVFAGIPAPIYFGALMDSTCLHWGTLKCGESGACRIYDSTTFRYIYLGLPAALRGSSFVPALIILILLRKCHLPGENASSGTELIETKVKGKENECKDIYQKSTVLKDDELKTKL
As to the kind of experiment: TP_TRANSPORTER: inhibition of Deltorphin II uptake (Deltorphin II: 50 uM, DPDPE: 500 uM) in Xenopus laevis oocytes. Format: functional, cell-based. To be noted: oocyte.

The target of data set [2] is T2, Solute carrier organic anion transporter family member 1A2 (OATP1A2) (Homo sapiens, UniProt P46721).
T2 sequence (P46721 whole entry): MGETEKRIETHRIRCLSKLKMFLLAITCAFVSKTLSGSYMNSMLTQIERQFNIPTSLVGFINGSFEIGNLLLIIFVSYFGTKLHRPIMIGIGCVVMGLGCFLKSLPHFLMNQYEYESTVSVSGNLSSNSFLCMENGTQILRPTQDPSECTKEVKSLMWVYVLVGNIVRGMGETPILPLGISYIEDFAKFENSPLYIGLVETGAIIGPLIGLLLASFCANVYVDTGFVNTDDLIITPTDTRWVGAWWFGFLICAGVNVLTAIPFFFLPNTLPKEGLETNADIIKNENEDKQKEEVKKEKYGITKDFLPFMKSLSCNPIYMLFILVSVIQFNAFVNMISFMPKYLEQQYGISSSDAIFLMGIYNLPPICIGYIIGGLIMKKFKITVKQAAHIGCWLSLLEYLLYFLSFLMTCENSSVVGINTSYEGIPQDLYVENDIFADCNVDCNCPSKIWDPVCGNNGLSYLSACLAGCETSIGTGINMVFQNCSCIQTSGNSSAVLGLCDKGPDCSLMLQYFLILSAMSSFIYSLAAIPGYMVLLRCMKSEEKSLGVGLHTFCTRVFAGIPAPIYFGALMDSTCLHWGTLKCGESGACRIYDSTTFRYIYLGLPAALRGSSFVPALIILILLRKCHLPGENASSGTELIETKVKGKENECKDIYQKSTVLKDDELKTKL
As to the kind of experiment: (§1) TP_TRANSPORTER: uptake in Xenopus laevis oocytes. To be noted: Xenopus laevis oocytes expressing the transporter. Format: functional, cell-based, Oocyte.

Data set [3] concerns the target T1, Solute carrier organic anion transporter family member 1A2. Briefly: TP_TRANSPORTER: inhibition of Deltorphin II uptake (Deltorphin II: 50 uM, DAMGO: 200 uM) in Xenopus laevis oocytes. Format: functional, cell-based. The conditions noted are these: oocyte.
Data set [4] concerns the target T3, Solute carrier organic anion transporter family member 1A4 (Rattus norvegicus, UniProt O35913).
T3 sequence (O35913 whole entry): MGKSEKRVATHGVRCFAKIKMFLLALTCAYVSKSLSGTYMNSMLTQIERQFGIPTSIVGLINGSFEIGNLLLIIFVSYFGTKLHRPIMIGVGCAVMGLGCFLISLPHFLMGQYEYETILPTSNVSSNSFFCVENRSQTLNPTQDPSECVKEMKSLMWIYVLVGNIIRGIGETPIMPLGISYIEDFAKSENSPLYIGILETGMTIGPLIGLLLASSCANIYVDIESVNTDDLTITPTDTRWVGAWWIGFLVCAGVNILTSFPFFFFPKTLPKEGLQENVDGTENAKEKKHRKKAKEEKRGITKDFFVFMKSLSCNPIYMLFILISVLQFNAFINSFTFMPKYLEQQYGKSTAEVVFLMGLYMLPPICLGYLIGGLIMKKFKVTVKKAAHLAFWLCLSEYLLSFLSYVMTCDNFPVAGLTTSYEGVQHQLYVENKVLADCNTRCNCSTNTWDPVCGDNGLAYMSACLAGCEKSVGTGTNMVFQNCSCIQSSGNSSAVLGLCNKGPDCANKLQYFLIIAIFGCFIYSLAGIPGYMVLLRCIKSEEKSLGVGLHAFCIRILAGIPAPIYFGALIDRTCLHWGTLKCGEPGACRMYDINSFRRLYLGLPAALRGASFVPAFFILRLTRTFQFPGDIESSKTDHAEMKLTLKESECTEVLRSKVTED
The data set is described as §1. Format: functional, cell-based. The conditions noted are these: oocyte.

Data set [5] deals with T1, Solute carrier organic anion transporter family member 1A2. As to the kind of experiment: TP_TRANSPORTER: inhibition of Deltorphin II uptake (Deltorphin II: 50 uM, E1S: 150 uM) in Xenopus laevis oocytes. To be noted: oocyte. Format: functional, cell-based.
The target is the same in data set [6]. As to the kind of experiment: TP_TRANSPORTER: inhibition of Deltorphin II uptake (Deltorphin II: 50 uM, Naloxone: 1500 uM) in Xenopus laevis oocytes. Format: functional, cell-based. The conditions noted are these: oocyte.
Data set [7] has the same target. Briefly: TP_TRANSPORTER: inhibition of Deltorphin II uptake (Deltorphin II: 50 uM, Naltrindole: 1500 uM) in Xenopus laevis oocytes. Type of data set: functional, cell-based. The conditions noted are these: oocyte.
Substrate in data set [8]: CC(C)[C@H](NC(=O)[C@H](CCC(=O)O)NC(=O)[C@H](Cc1ccccc1)NC(=O)[C@@H](C)NC(=O)[C@@H](N)Cc1ccc(O)cc1)C(=O)N[C@H](C(=O)NCC(N)=O)C(C)C
Described as §1. Format: functional, cell-based, Oocyte.

Substrate in data set [9]: CC1(C)SSC(C)(C)[C@@H](NC(=O)[C@@H](N)Cc2ccc(O)cc2)C(=O)NCC(=O)N[C@@H](Cc2ccccc2)C(=O)N[C@H]1C(=O)O
The description is as §1. Type of data set: functional, cell-based, Oocyte.

Regarding `CC1(C)SSC(C)(C)[C@@H](NC(=O)[C@@H](N)Cc2ccc(O)cc2)C(=O)NCC(=O)N[C@@H](Cc2ccccc2)C(=O)N[C@H]1C(=O)O`, in data set [1], the Activity entry was “inhibitor [(at a rough estimate) 50 % of control]”. In addition, the Km in data set [2] was 202 µM.
For the molecule `C[C@@H](NC(=O)[C@@H](N)Cc1ccc(O)cc1)C(=O)NCC(=O)N(C)[C@@H](Cc1ccccc1)C(=O)NCCO` [DAMGO], in data set [3], the Activity result was “inhibitor [(at a rough estimate) 50 % of control]”.
Turning to `CC(C)[C@H](NC(=O)[C@H](CCC(=O)O)NC(=O)[C@H](Cc1ccccc1)NC(=O)[C@@H](C)NC(=O)[C@@H](N)Cc1ccc(O)cc1)C(=O)N[C@H](C(=O)NCC(N)=O)C(C)C` [DELTORPHIN II], in data set [2], the Km is 330 µM. For the same molecule, the Activity entry in data set [4] was “is not a substrate [-]”.
On to `C[C@]12CC[C@@H]3c4ccc(OS(=O)(=O)O)cc4CC[C@H]3[C@@H]1CCC2=O` [ESTRONE SULFURIC ACID], for which the Activity entry in data set [5] is “inhibitor [(at a rough estimate) 10 % of control]”.
With `C=CCN1CC[C@]23c4c5ccc(O)c4O[C@H]2C(=O)CC[C@@]3(O)[C@H]1C5` [NALOXONE], the Activity entry in data set [6] was “inhibitor [(at a rough estimate) 20 % of control]”.
`Oc1ccc2c3c1O[C@H]1c4[nH]c5ccccc5c4C[C@@]4(O)[C@@H](C2)N(CC2CC2)CC[C@]314` [NALTRINDOLE]: the Activity entry in data set [7] is “inhibitor [(at a rough estimate) 10 % of control]”.

B1: Solute carrier organic anion transporter family member 1A1 (Rattus norvegicus) (protein)
chain: MEETEKKIATQEGRLFSKMKVFLLSLTCACLTKSLSGVYMNSMLTQIERQFDISTSVAGLINGSFEIGNLFFIVFVSYFGTKLHRPVVIGIGCVIMGLGCLLMSLPHFFMGRYEYETTISPTGNLSSNSFLCMENRTQTLKPTQDPAECVKEMKSLMWICVMVGNIIRGIGETPIVPLGISYIEDFAKSENSPLYIGILEMGKVAGPIFGLLLGSYCAQIYVDIGSVNTDDLTITPSDTRWVGAWWIGFLVCAGVNILTSIPFFFLPKALPKKGQQENVAVTKDGKVEKYGGQAREENLGITKDFLTFMKRLFCNPIYMLFILTSVLQVNGFINKFTFLPKYLEQQYGKSTAEAIFLIGVYSLPPICLGYLIGGFIMKKFKITVKKAAYLAFCLSVFEYLLFLCHFMLTCDNAAVAGLTTSYKGVQHQLHVESKVLADCNTRCSCSTNTWDPVCGDNGVAYMSACLAGCKKFVGTGTNMVFQDCSCIQSLGNSSAVLGLCKKGPECANRLQYFLILTIIISFIYSLTAIPGYMVFLRCVKSEEKSLGVGLHTFCIRVFAGIPAPVYFGALIDRTCLHWGTLKCGQRGACRMYDINSFRHIYLGLPIALRGSSYLPAFFILILMRKFQFPGDIDSSATDHTEMMLGEKESEHTDVHGSPQVENDGELKTKL
With B1, the Km was determined as 137 µM in [8] and 48 µM in [9].

B2: Solute carrier organic anion transporter family member 1A4 (Rattus norvegicus) (protein)
chain: MGKSEKRVATHGVRCFAKIKMFLLALTCAYVSKSLSGTYMNSMLTQIERQFGIPTSIVGLINGSFEIGNLLLIIFVSYFGTKLHRPIMIGVGCAVMGLGCFLISLPHFLMGQYEYETILPTSNVSSNSFFCVENRSQTLNPTQDPSECVKEMKSLMWIYVLVGNIIRGIGETPIMPLGISYIEDFAKSENSPLYIGILETGMTIGPLIGLLLASSCANIYVDIESVNTDDLTITPTDTRWVGAWWIGFLVCAGVNILTSFPFFFFPKTLPKEGLQENVDGTENAKEKKHRKKAKEEKRGITKDFFVFMKSLSCNPIYMLFILISVLQFNAFINSFTFMPKYLEQQYGKSTAEVVFLMGLYMLPPICLGYLIGGLIMKKFKVTVKKAAHLAFWLCLSEYLLSFLSYVMTCDNFPVAGLTTSYEGVQHQLYVENKVLADCNTRCNCSTNTWDPVCGDNGLAYMSACLAGCEKSVGTGTNMVFQNCSCIQSSGNSSAVLGLCNKGPDCANKLQYFLIIAIFGCFIYSLAGIPGYMVLLRCIKSEEKSLGVGLHAFCIRILAGIPAPIYFGALIDRTCLHWGTLKCGEPGACRMYDINSFRRLYLGLPAALRGASFVPAFFILRLTRTFQFPGDIESSKTDHAEMKLTLKESECTEVLRSKVTED
As to B2, the Km in data set [9] turned out to be 19 µM.

What is called Km is the substrate concentration at which the rate is half of its maximum.
